Data published in PubChem BioAssay AID2305 (GlaxoSmithKline (GSK), 2010).
Where “and” joins values, the source holds several entries; their conditions need not be identical. Identical values can stand only once.

system: P. falciparum 3D7 growth, pLDH absorbance; test: P. falciparum 3D7 growth inhibition, dose response, strain 3D7 (AID 2305)

Row | SMILES | IC50
1 | C[C@@H](C(=O)N1CCOCC1)N1CC[C@H](NS(=O)(=O)c2ccc3ccnc(N)c3c2)C1=O | 1500 nM
2 | O=C(Nc1ccc(Cl)cc1C(=O)Nc1cccc(F)c1)c1ccc([N+](=O)[O-])cc1 | 370 nM
3 | CCN(CC)CCCC(C)Nc1c2cc(OC)ccc2nc2cc(Cl)c([N+](=O)[O-])cc12 (stereo not drawn) | 790 nM
4 | COc1cc(-c2[nH]c(-c3ccc(OCCN(C)C)cc3)cc2-c2ccncc2)ccc1Cl | 1790 nM
5 | Cn1cccc1C(=O)NCC(CCNc1cc(=O)c2ccccc2[nH]1)NCc1cc(Br)cc(Br)c1 (stereo not drawn) | 910 nM
6 | COc1ccc(Cn2cncc2CN(CCC(C)C)C(=O)c2ccc(Cl)nc2Cl)cc1 | 1040 nM
7 | Cc1ccc(Oc2c(-c3ccccc3CN3CCCC3CN(C)C)cnn(C)c2=O)cn1 (stereo not drawn) | 1160 nM
8 | O=C(Nc1ccc(Cl)cc1)c1ccc(S(=O)(=O)NCC2CCN(CC3CCCCC3)CC2)cc1 | 860 nM
9 | CC(C)Cc1csc(NC(=O)C=Cc2ccco2)c1C(=O)O | 300 nM
10 | Cc1ccc(Sc2ccc(NC(=O)CN3CCN(C(=O)c4ccco4)CC3)cc2)cc1C | 910 nM
11 | Cc1cc(O)cc2c(C3CCN(CC4CCC(NC(=O)/C=C/c5ccccc5Cl)CC4)CC3)c[nH]c12 (stereo not drawn) | 900 nM
12 | CCCCOc1cc2[nH]cc(C(=O)OCC)c(=O)c2cc1OCCCC | 200 nM
13 | O=C(NCCCNc1ccc2ccccc2n1)c1cc2c(Cl)cc(Cl)cc2[nH]1 | 600 nM
14 | Cc1cc(N[C@@H](Cc2ccccc2)C(=O)Nc2ccccc2)nc(NCCc2ccc(F)cc2)n1 | 860 nM
15 | Cc1ccccc1C1CCN(C2CCC(NC(=O)/C=C/c3c(F)ccc(F)c3F)CC2)CC1 (stereo not drawn) | 1260 nM
16 | CCOc1ccc(C(C)NC(=O)C2COc3ccccc3O2)cc1OCC (stereo not drawn) | 900 nM
17 | COc1cccc(CNc2noc(-c3c(-c4ccccc4)noc3C)n2)c1OC | 870 nM
18 | CCC[C@@H]([C@@H](CC1CCC(C)CC1)C(=O)N[C@@H](CO)C(=O)Nc1nccs1)N(O)C=O (stereo partly drawn) | 320 nM
19 | COc1cccc(NC(=O)c2cc(Br)cc(N3CCN(c4ccncc4)CC3)c2)c1 | 770 nM
20 | COc1cc(Cc2cnc(N)nc2N)cc(OCCCCCCC(=O)O)c1OC | 940 nM
21 | COc1ccc(NC(=O)[C@H](Cc2ccccc2)Nc2cc(C)nc(NCCc3cccs3)n2)cc1 | 750 nM
22 | COc1ccc2nccc(NC(=O)CNCc3ccc(-c4ccccc4)cc3)c2c1 | 770 nM
23 | COc1c(C2=CCN(CCCCNC(=O)c3ccc(-c4ccc(C#N)cc4)cc3)CC2)ccc2c1CCCC2 | 910 nM
24 | OC(c1n[nH]c(=S)n1-c1ccccc1)C(O)c1n[nH]c(=S)n1-c1ccccc1 (stereo not drawn) | 740 nM

Row | SMILES | IC50
25 | CCc1nc(N)nc(N)c1-c1ccc(Cl)cc1 | 60 nM and 30 nM
26 | CNCc1cccc2[nH]c(-c3ccc(Cc4cc(Cl)ccc4OCC(C)C)o3)nc12 | 900 nM
27 | O=C(NC1CCC(CN2CCC(c3c[nH]c4ccccc34)CC2)CC1)c1cn(Cc2ccccc2)c2ccccc12 (stereo not drawn) | 1130 nM
28 | COc1cc(F)c2ncc(Cl)c(C(O)CN3CCC(NC(=O)c4ccc5c(c4)NC(=O)CS5)CC3)c2c1 (stereo not drawn) | 680 nM
29 | OCCN1CCN(Cc2cccc(-c3ccc(-c4nc5ccc(C(F)(F)F)cc5[nH]4)s3)c2)CC1 | 90 nM
30 | O=C(Nc1ccc(-c2oc(C(=O)NCCc3cccc(Cl)c3)cc2-c2ccncc2)cc1)Nc1cccc(Cl)c1 | 720 nM
31 | CCCCCCOc1ccc(C(=O)NCCC2CCN(CCCCCNC(=O)C=Cc3ccc(Cl)c(Cl)c3)CC2)cc1 | 660 nM
32 | c1ccc(CCNCc2cccc(-c3ccccc3CNCc3ccc4c(c3)OCO4)c2)nc1 | 970 nM
33 | COc1cc(C(=O)NC2CCN(Cc3ccccc3)CC2)ccc1-c1cc2cc(Cl)c(Cl)cc2[nH]1 | 230 nM
34 | Cc1cc(N[C@@H](CC(C)C)C(=O)NCc2cccs2)nc(Nc2ccccc2)n1 | 1130 nM
35 | CC1CCCCC1N(C)C1CCN(CCCNC(=O)C=Cc2ccccc2Cl)CC1 (stereo not drawn) | 670 nM
36 | COc1ccc2nccc(NC(=O)N3CCC(NCc4cc5ccccc5[nH]4)CC3)c2n1 | 560 nM
37 | Nc1nc(N)c2cc(C#Cc3ccc(-c4ccccc4)cc3)ccc2n1 | 810 nM
38 | OCCn1c(CNCCCNc2nc3ccccc3[nH]2)cc2c(Cl)cc(Cl)cc21 | 810 nM
39 | COc1ccc(NC(=O)[C@H](C)Nc2cc(C)nc(NCC3CCCCC3)n2)cc1 | 1280 nM
40 | Cc1cc(N2CCCC2)nc(Nc2ccc(NC(=O)C(C)Oc3ccccc3)cc2)n1 (stereo not drawn) | 1140 nM
41 | CS(=O)(=O)Nc1ccc2[nH]cc(C3CCN(CC4CCC(NC(=O)/C=C/c5ccccc5Cl)CC4)CC3)c2c1 (stereo not drawn) | 790 nM
42 | CC(C)CNCc1ccc(-c2cccc(CN(C(=O)CCC3CCCC3)C3CCN(Cc4ccccc4)CC3)c2)cc1 | 800 nM
43 | O=C(Nc1cccc(CN2CCCN(Cc3ncc[nH]3)CC2)c1)c1ccc(-c2ccccc2)cc1 | 650 nM
44 | COc1ccc2c(NN=CC=Cc3ccccc3)cc(C)nc2c1 | 840 nM
45 | O=C(Nc1ccc(Cn2nc(Cl)c(N3CCNCC3)cc2=O)cc1)Nc1ccc(-c2ccccc2)cc1 | 750 nM
46 | Cc1ccc(-c2nnc3c4ccccc4c(C)nn23)cc1S(=O)(=O)N1CCN(CCO)CC1 | 670 nM
47 | COc1ccc2nccc([C@@H](O)CN3CCC(NC(=O)Cc4cccc5c(Br)cccc45)CC3)c2c1 | 800 nM
48 | Cc1noc(-c2ccccc2)c1NC(=O)NC1CCN(CCCCCNC(=O)/C=C/c2ccc(Cl)c(Cl)c2)CC1 | 990 nM
